Test results: patent US5416119A, “Alkylaminoalkyl-terminated sulfide/sulfonyl-containing cycloalkyl-alanine amino-diol compounds for treatment of hypertension” (G. D. Searle & Co., priority 1993, dated 1995)

Biological target: T1, Human Renin (Homo sapiens, UniProt P00797)
T1 construct: purchased National Institute for Biological Standards, London
T1 sequence (P00797 67-406): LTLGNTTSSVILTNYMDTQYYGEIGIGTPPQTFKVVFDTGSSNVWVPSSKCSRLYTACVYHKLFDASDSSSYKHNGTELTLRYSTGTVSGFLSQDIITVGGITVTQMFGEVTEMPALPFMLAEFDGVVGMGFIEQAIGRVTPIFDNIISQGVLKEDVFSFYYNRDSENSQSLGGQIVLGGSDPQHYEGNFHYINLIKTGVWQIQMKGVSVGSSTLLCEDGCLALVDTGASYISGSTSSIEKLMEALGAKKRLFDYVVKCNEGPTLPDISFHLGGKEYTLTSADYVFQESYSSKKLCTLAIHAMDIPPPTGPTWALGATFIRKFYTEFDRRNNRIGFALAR
Test: Human renin inhibition in vitro (angiotensin I produced, determined by radioimmunoassay)
Type: biochemical
Details: human plasma, pH 7.4, 37° C., two hours
Protocol: Compounds of Formula I were evaluated as inhibitors of human renin in an in vitro assay, as follows: This human renin inhibition test has been previously described in detail [Papaioannou et al., Clinical and Experimental Hypertension, A7(9), 1243-1257 (1985)]. Human renin was obtained from the National Institute for Biological Standards, London. An incubation mixture was prepared containing the following components: in a total volume of 0.25 mL: 100 mM Tris-acetate buffer at pH 7.4, 25×10^-6 Goldblatt units of renin, 0.05 mL of plasma from human volunteers taking oral contraceptives, 6.0 mM Na-EDTA, 2.4 mM phenylmethyl sulfonyl fluoride, 1.5 mM 8-hydroxyquinoline, 0.4 mg/mL bovine serum albumin (BSA), and 0.024 mg/mL neomycin sulfate. This mixture was incubated for two hours at 37° C. in the presence or absence of renin inhibitors. The produced angiotensin I was determined by radioimmunoassay (New England Nuclear kit). Test compounds to be assayed were dissolved in DMSO and diluted with 100 mM Tris-acetate buffer at pH 7.4 containing 0.5% BSA to the appropriate concentration. The final concentration of organic solvent in the reaction mixture was less than 1%. Control incubations at 37° C. were used to correct for effects of organic solvent on renin activity.

`CC(C)C[C@H](O)[C@H](O)[C@H](CC1CCCCC1)NC(=O)C(CC1CC1)NC(=O)C(Cc1ccccc1)CS(=O)(=O)CCN(C)C` (stereo partly drawn) [Example 1, N-[2-[[1S,1R*-(cyclohexylmethyl)-2S*,3R* -dihydroxy-5-methylhexyl]amino]-1R*-(cyclopropylmethyl)-2-oxoethyl]-α-[[[2-(dimethylamino)ethyl]sulfonyl]methyl]benzenepropanamide] gave an IC50 of 1.3 nM.
